{"source": "patent US8742082B2", "about": "“Compositions and methods for influencing satiety, lipid metabolism, and fat utilization” (Nestec S.A., priority 2008, dated 2014)", "type_in_all_cases": "in vivo", "key": {"[1]": {"tested_on": "Fatty acid transporter/cluster of differentiation 36 (FAT/CD 36)", "test": "Real-time PCR gene expression in peripheral tissues: FAT/CD36", "conditions": "C57bl6j mice, high fat diet, 100 mg/kg/body weight in diet, 5 weeks", "method": "(§1) The expression of 45 genes was measured by real-time PCR in peripheral tissues to identify genes that were differentially expressed in response to oral administration of oleoylethanolamide (OEA) or a non-hydrolysable OEA analog (KDS 5104), which affect satiety, lipid metabolism, fat utilization, food intake, and body fat mass.\n(§2) Animals, diet, and experimental design. Adult male C57bl6j mice purchased at 8 weeks of age were individually housed and maintained ad libitum on high fat diet and water for 2 weeks. Seven mice were randomly allocated in 3 groups and fed with a high fat diet (lipids represented 50% of daily energy) for 2 weeks. For one kilogram, the composition of the high fat diet was: 235 g casein, 201 g saccharose, 3.5 g L-cystine, 85 g starch, 116 g maltodextrin, 60 g cellulose, 12 g vitamins mix (AIN-93M, UPAE, Jouy-en-Josas, France), 51.5 g mineral mix (AIN-93Vx, UPAE, Jouy-en-Josas, France), and 236 g lard. Then, either OEA or KDS 5104 was added to the diet at a concentration of 100 mg/kg/body weight. The mice were kept under treatment for 5 weeks.\n(§3) Sampling. At the end of the experimental period, mice were sacrificed by blood drawing (cardiac puncture) after anesthesia with isoflurane. Plasma was obtained by centrifugation (1,000 g for 10 min at 4° C.). Mesenteric, epididymal, inguinal and peritoneal adipose depots, as well as liver, stomach, small intestine mucosa, pancreas, and gastrocnemian muscle were removed and frozen into liquid nitrogen. Plasma, urine, feces, and organ samples were kept at −80° C. until analysis.\n(§4) RNA extraction and gene expression. Total RNA from liver, intestine mucous membrane, adipose tissues, gastrocnemian muscle, pancreas and stomach were extracted with TRIzol reagent (Invitrogen, Carlsbad, USA) according to the manufacturer's instruction. The RNA concentration was determined on nanodrop from the absorbance at 260 nm. Retro-transcription PCRs to synthesize cDNA were performed using an Applied Biosystem Thermal Cycler 2720 and Superscript II (Invitrogen, Carlsbad, USA) according to manufacturer's protocol. Real-time quantitative PCR (RT-qPCR) were performed on cDNA obtained as described above using a high through put system (Biomek 3000, Beckman & Coulter, Fullerton, USA) and a Lightcycler 480 (Roche/Hitachi, Basel, Switzerland) with SYBR Green Master mix+kit (Eurogentec, Philadelphia, USA). Primers for the selected genes were generated using online informatics assistance from the Lightcycler manufacturer (Roche). Databases used to identify the genes were (1) the NCBI database (GenBank) and (2) the IHOP (Information Hyperlinked over Protein) database (www.ihop-net.org/UniPub/iHOP/bng/). Values were expressed as ratio of RNA levels relative to control mice (diets with 0 mg of OEA/kg/body weight) using ΔΔ(Ct) (Livak K J & Schmittgen T D, 2001, Methods 25:402-8). Gene expression of the following genes was measured (abbreviation and GenBank Accession shown in parentheses).\n(§5) Statistical analysis. Results are presented as means±standard error of the means (SEM). Statistical analysis of physiological parameters and gene expression data was performed by one-way ANOVA on Statview software (SAS Institute, Cary, USA). Daily food intake was analyzed using two-way ANOVA on Statview software. Statistical significance was set up at the P<0.05 level, the P<0.01 level and the P<0.001 level. For statistical analysis of the gene expression data, values were calculated relative to 18S expression for each mouse and gene."}, "[2]": {"tested_on": "Phosphoenolpyruvate carboxykinase (PEP CK)", "test": "Real-time PCR gene expression in peripheral tissues: PepCK", "conditions": "liver; C57bl6j mice, high fat diet, 100 mg/kg/body weight in diet, 5 weeks", "method": "as §1\n(§6) Animals, diet, and experimental design. Adult male C57bl6j mice purchased at 8 weeks of age were individually housed and maintained ad libitum on high fat diet and water for 2 weeks. Seven mice were randomly allocated in 3 groups and fed with a high fat diet (lipids represented 50% of daily energy) for 2 weeks. […]\n(§7) RNA extraction and gene expression. […] The RNA concentration was determined on nanodrop from the absorbance at 260 nm. […] Real-time quantitative PCR (RT-qPCR) were performed on cDNA obtained as described above using a high through put system (Biomek 3000, Beckman & Coulter, Fullerton, USA) and a Lightcycler 480 (Roche/Hitachi, Basel, Switzerland) with SYBR Green Master mix+kit (Eurogentec, Philadelphia, USA). […] Values were expressed as ratio of RNA levels relative to control mice (diets with 0 mg of OEA/kg/body weight) using ΔΔ(Ct) (Livak K J & Schmittgen T D, 2001, Methods 25:402-8). Gene expression of the following genes was measured (abbreviation and GenBank Accession shown in parentheses). […]"}, "[3]": {"tested_on": "Fasting induced adipocyte factor (Fiaf)", "test": "Real-time PCR gene expression in peripheral tissues: Fiaf", "conditions": "C57bl6j mice, high fat diet, 100 mg/kg/body weight in diet, 5 weeks", "method": "as §1, §2, §3, §4\nas §5, with “Results are presented as means±standard error of the means (SEM).” left out"}, "[4]": {"tested_on": "Oleoylethanolamide synthase (OEA synthase)", "test": "Real-time PCR gene expression in peripheral tissues: OEA synthase", "conditions": "proximal intestine; C57bl6j mice, high fat diet, 100 mg/kg/body weight in diet, 5 weeks", "method": "as §1, §6, §7"}, "[5]": {"tested_on": "Cannabinoid receptor 1 (CB 1)", "test": "Real-time PCR gene expression in peripheral tissues: CB1", "conditions": "C57bl6j mice, high fat diet, 100 mg/kg/body weight in diet, 5 weeks", "method": "as §1, §2, §3, §4\nas §5, with “Results are presented as means±standard error of the means (SEM).” left out"}, "[6]": {"tested_on": "Glucose transporter 4 (Glut 4)", "test": "Real-time PCR gene expression in peripheral tissues: Glut 4", "conditions": "muscle; C57bl6j mice, high fat diet, 100 mg/kg/body weight in diet, 5 weeks", "method": "as §1, §6, §7"}, "[7]": {"tested_on": "Fatty acid amide hydrolase (FAAH)", "test": "Real-time PCR gene expression in peripheral tissues: FAAH", "conditions": "C57bl6j mice, high fat diet, 100 mg/kg/body weight in diet, 5 weeks", "method": "as §1, §2, §3, §4\nas §5, with “Results are presented as means±standard error of the means (SEM).” left out"}, "Cholescystokinin (CCK)": {"tested_on": "Cholescystokinin (CCK)", "test": "Real-time PCR gene expression in peripheral tissues: CCK", "conditions": "proximal intestine; C57bl6j mice, high fat diet, 100 mg/kg/body weight in diet, 5 weeks", "method": "as §1, §6, §7"}, "Visfatin": {"tested_on": "Visfatin", "test": "Real-time PCR gene expression in peripheral tissues: visfatin", "conditions": "C57bl6j mice, high fat diet, 100 mg/kg/body weight in diet, 5 weeks", "method": "as §1, §2, §3\n(§8) RNA extraction and gene expression. Total RNA from liver, intestine mucous membrane, adipose tissues, gastrocnemian muscle, pancreas and stomach were extracted with TRIzol reagent (Invitrogen, Carlsbad, USA) according to the manufacturer's instruction. The RNA concentration was determined on nanodrop from the absorbance at 260 nm. […] Real-time quantitative PCR (RT-qPCR) were performed on cDNA obtained as described above using a high through put system (Biomek 3000, Beckman & Coulter, Fullerton, USA) and a Lightcycler 480 (Roche/Hitachi, Basel, Switzerland) with SYBR Green Master mix+kit (Eurogentec, Philadelphia, USA). […] Values were expressed as ratio of RNA levels relative to control mice (diets with 0 mg of OEA/kg/body weight) using ΔΔ(Ct) (Livak K J & Schmittgen T D, 2001, Methods 25:402-8). Gene expression of the following genes was measured (abbreviation and GenBank Accession shown in parentheses).\n(§9) Statistical analysis. […] Daily food intake was analyzed using two-way ANOVA on Statview software. […] For statistical analysis of the gene expression data, values were calculated relative to 18S expression for each mouse and gene."}, "Adiponectin": {"tested_on": "Adiponectin", "test": "Real-time PCR gene expression in peripheral tissues: adiponectin", "conditions": "C57bl6j mice, high fat diet, 100 mg/kg/body weight in diet, 5 weeks", "method": "as §1, §2, §3, §8, §9"}, "[8]": {"tested_on": "N-acylsphingosine amidohydrolase-like (NAAA)", "test": "Real-time PCR gene expression in peripheral tissues: NAAA", "conditions": "C57bl6j mice, high fat diet, 100 mg/kg/body weight in diet, 5 weeks", "method": "as §1, §2, §3, §4\nas §5, with “Results are presented as means±standard error of the means (SEM).” left out"}, "AcylCoA oxidase (ACO)": {"tested_on": "AcylCoA oxidase (ACO)", "test": "Real-time PCR gene expression in peripheral tissues: ACO", "conditions": "liver; C57bl6j mice, high fat diet, 100 mg/kg/body weight in diet, 5 weeks", "method": "as §1, §6, §7"}}}
{"smiles": "CCCCCCCC/C=C\\CCCCCCCC(=O)N[C@H](C)CO", "note": "[KDS 5104, (Z)—(R)-9-octadecenamide, N-(2-hydroxyethyl, 1-methyl)]", "values": [{"measurement": "FAT/CD36 at per, ratio of RNA levels relative to control mice", "setting": "[1]; peritoneal adipose tissue", "value": 1.01}, {"measurement": "FAT/CD36 i, ratio of RNA levels relative to control mice", "setting": "[1]; proximal intestine", "value": 1.83}, {"measurement": "PepCK l, ratio of RNA levels relative to control mice", "setting": "[2]", "value": 1.55}, {"measurement": "Fiaf at ep, ratio of RNA levels relative to control mice", "setting": "[3]; epidydimal adipose tissue", "value": 0.46}, {"measurement": "Fiaf at per, ratio of RNA levels relative to control mice", "setting": "[3]; peritoneal adipose tissue", "value": 2.79}, {"measurement": "Fiaf i, ratio of RNA levels relative to control mice", "setting": "[3]; proximal intestine", "value": 0.68}, {"measurement": "OEA synthase i, ratio of RNA levels relative to control mice", "setting": "[4]", "value": "−1.36"}, {"measurement": "CB1 at ep, ratio of RNA levels relative to control mice", "setting": "[5]; epidydimal adipose tissue", "value": "−1.48"}, {"measurement": "CB1 at per, ratio of RNA levels relative to control mice", "setting": "[5]; peritoneal adipose tissue", "value": "−3.00"}, {"measurement": "CB1 i, ratio of RNA levels relative to control mice", "setting": "[5]; proximal intestine", "value": "−1.25"}, {"measurement": "Glut 4 m, ratio of RNA levels relative to control mice", "setting": "[6]", "value": 5.70}, {"measurement": "FAAH at ep, ratio of RNA levels relative to control mice", "setting": "[7]; epidydimal adipose tissue", "value": 9.71}, {"measurement": "FAAH at per, ratio of RNA levels relative to control mice", "setting": "[7]; peritoneal adipose tissue", "value": 3.82}, {"measurement": "FAAH i, ratio of RNA levels relative to control mice", "setting": "[7]; proximal intestine", "value": 1.28}, {"measurement": "CCK i, ratio of RNA levels relative to control mice", "setting": "Cholescystokinin (CCK)", "value": 1.62}, {"measurement": "visfatin at ep, ratio of RNA levels relative to control mice", "setting": "Visfatin; epidydimal adipose tissue", "value": "−1.08"}, {"measurement": "visfatin at per, ratio of RNA levels relative to control mice", "setting": "Visfatin; peritoneal adipose tissue", "value": "−1.10"}, {"measurement": "adiponectin at ep, ratio of RNA levels relative to control mice", "setting": "Adiponectin; epidydimal adipose tissue", "value": "−1.02"}, {"measurement": "adiponectin at per, ratio of RNA levels relative to control mice", "setting": "Adiponectin; peritoneal adipose tissue", "value": "−1.52"}, {"measurement": "NAAA at ep, ratio of RNA levels relative to control mice", "setting": "[8]; epidydimal adipose tissue", "value": 1.38}, {"measurement": "NAAA at per, ratio of RNA levels relative to control mice", "setting": "[8]; peritoneal adipose tissue", "value": 1.52}, {"measurement": "NAAA i, ratio of RNA levels relative to control mice", "setting": "[8]; proximal intestine", "value": 1.60}, {"measurement": "ACO l, ratio of RNA levels relative to control mice", "setting": "AcylCoA oxidase (ACO)", "value": 1.15}]}
